Results: patent US20240277677A1, “SALT FORM AND CRYSTAL FORM THEREOF OF SULFONYLUREA RING SUBSTITUTED COMPOUND” (priority 2022, published 2024)
In brackets after ≈: the same amount, converted by molar mass.

Tests used:
[1] = tested on: Klebsiella pneumoniae ATCC-BAA 2470 (NDM+); assay: Drug efficacy in thigh muscle infection model in vivo (immunodeficient CD-1 female mice); conditions: for Average CFU of Mouse (bacterial load of thigh muscle tissue): end point 26 h
Procedure: 78 CD-1 female mice were divided into 26 cages, 3 mice per cage. The day of infection is counted as the 0 day.
150 mg/kg immunosuppressant cyclophosphamide was intraperitoneally injected on Day-4, and 100 mg/kg immunosuppressant cyclophosphamide was intraperitoneally injected again on Day-1 to obtain immunodeficient mice.
The strain Klebsiella pneumoniae ATCC-BAA 2470 (NDM+) was recovered on an MHA plate on Day-1. The recovered colonies were picked and dissolved in sterile saline to prepare a bacterial solution with a concentration of 5.95E+07 CFU/mL for use in mouse thigh muscle infection. The infection starting time was counted as 0 h, and 100μL of bacterial solution is injected into the thigh muscle of each mouse at 0 h, that is, the inoculation amount is 5.95E+06 CFU/mouse. 2 h after infection, the drugs were administered according to the experimental scheme. […] The mice in the 1st to 4th cage were administered at a total daily dose of 1600 mg/kg, the mice in the 5th to 8th cage were administered at a total daily dose of 480 mg/kg, the mice in the 9th to 12th cage were administered at a total daily dose of 160 mg/kg, the mice in the 13th to 16th cage were administered at a total daily dose of 48 mg/kg, the mice in the 17th to 20th cage were administered at a total daily dose of 16 mg/kg, the mice in the 21th to 24th cage were administered at a total daily dose of 4.8 mg/kg, and each dosage group was administered separately in four different dosage dividing manners, which were q3 h, q6 h, q12 h and q24 h separately. • (3) 26 h after infection: The endpoint of the experiment was at 26 h after infection, the thigh muscle tissue of the mice of the 1st to 26th cage was taken and placed in 10 mL sterile saline, the tissue was homogenized by a homogenizer, and the homogenate was dotted on a plate with gradient dilution, two duplications for each mouse. The bacterial load of the thigh muscle tissue of the mice was counted, and for the experimental results see Table 15.

[2] = Stability test of the crystal form A in different solvents (suspension 2 days, crystal form test); format: physicochemical; conditions: for Result (crystal form): 20~30° C., 2 days
[3] = tested on: Enterobacter cloacae ATCC BAA-1143 (AmpC); assay: Antibacterial activity MIC, micro-liquid dilution method (CLSI); format: cell-based; conditions: ATCCBAA1143, E. cloacae ATCC BAA-1143 Class C (AmpC)
Description: (§1) Three strains of Klebsiella pneumonia, ATCC BAA-205 (TEM-1/SHV-1/SHV-12), ATCC BAA-1705 (KPC-2), ATCC BAA-2470 (NDM-1), Enterobacter cloacae ATCC BAA-1143 (AmpC), two strains of Escherichia coli ATCC BAA-2523(OXA-48), ATCC 25922 were used to determine the minimum inhibitory concentration (MIC) of each of the compounds by a micro-liquid dilution method according to the Institute of Clinical and Laboratory Standard (CLSI) requirements. A 2-fold serial dilution of the compound (final concentration ranging from 0.125 μg/ml to 128 µg/ml) was added to a round-bottom 96-well plate (Catalog #3788, Corning), fresh monoclonal bacteria were selected from an overnight cultured Mueller Hinton II Agar medium plate (MHA, Cat. No. 211438, BD BBL™) and suspended in sterile saline, the concentration was adjusted to 1×10^8 CFU/mL, and then the solution was diluted by using a cation-adjusted Hinton Mueller culture medium Cation-Adjusted Mueller Hinton II Broth (MHB, Catalog #212332, BD BBL™) to a concentration of 5×10^5 CFU/ml, and 100 μl of the solution was added to a round bottom 96-well plate containing the drugs. The plate was placed upside down at 37° C. and the MIC value was read after 20-24 h of incubation, and the lowest drug concentration that inhibited the growth of bacteria was set as MIC. For the results see Table 1. Colony-Forming Units (CFU) refers to the total number of bacterial colonies per unit volume.

[4] = tested on: Escherichia coli ATCC 25922; assay: as above; format: cell-based; conditions: ATCC25922, E. coli ATCC 25922
Description: as §1

[5] = tested on: Klebsiella pneumonia ATCC BAA-205 (TEM-1/SHV-1/SHV-12); assay: as above; format: cell-based; conditions: Klebsiella pneumoniae, ATCCBAA205
Description: as §1

[6] = tested on: Klebsiella pneumonia ATCC BAA-1705 (KPC-2); assay: as above; format: cell-based; conditions: Klebsiella pneumoniae, ATCCBAA1705; K. pneumoniae ATCC BAA-1705 Class A (KPC-2)
Description: as §1

[7] = tested on: Klebsiella pneumonia ATCC BAA-2470 (NDM-1); assay: as above; format: cell-based; conditions: Klebsiella pneumoniae, ATCCBAA2470; K. pneumoniae ATCC BAA-2470 Class B (NDM-1)
Description: as §1

[8] = tested on: Escherichia coli ATCC BAA-2523(OXA-48); assay: as above; format: cell-based; conditions: ATCCBAA2523, E. coli ATCC BAA-2523 Class D (OXA-48)
Description: as §1

NC[C@@H]1CN(C[C@@H]2[C@H](NC(=O)/C(=N\OC3(C(=O)O)CC3)c3csc(N)n3)C(=O)N2S(=O)O)S(=O)(=O)N1 (stereo in doubt)
Average CFU of Mouse (bacterial load of thigh muscle tissue) ([1]; group 1: total daily dose 1600 mg/kg, single dose 60 mg/kg, q3h s.c.): 2.18E+06 CFU/Mouse | Average CFU of Mouse (bacterial load of thigh muscle tissue) ([1]; group 2: total daily dose 1600 mg/kg, single dose 400 mg/kg, q6h s.c.): 2.45E+06 CFU/Mouse | Average CFU of Mouse (bacterial load of thigh muscle tissue) ([1]; group 3: total daily dose 1600 mg/kg, single dose 800 mg/kg, q12h s.c.): 3.80E+08 CFU/Mouse | Average CFU of Mouse (bacterial load of thigh muscle tissue) ([1]; group 4: total daily dose 1600 mg/kg, single dose 1600 mg/kg, q24h s.c.): 9.02E+09 CFU/Mouse | Average CFU of Mouse (bacterial load of thigh muscle tissue) ([1]; group 5: total daily dose 480 mg/kg, single dose 60 mg/kg, q3h s.c.): 2.20E+06 CFU/Mouse | Average CFU of Mouse (bacterial load of thigh muscle tissue) ([1]; group 6: total daily dose 480 mg/kg, single dose 120 mg/kg, q6h s.c.): 2.18E+08 CFU/Mouse | Average CFU of Mouse (bacterial load of thigh muscle tissue) ([1]; group 7: total daily dose 480 mg/kg, single dose 240 mg/kg, q12h s.c.): 2.88E+09 CFU/Mouse | Average CFU of Mouse (bacterial load of thigh muscle tissue) ([1]; group 8: total daily dose 480 mg/kg, single dose 480 mg/kg, q24h s.c.): 8.73E+09 CFU/Mouse | Average CFU of Mouse (bacterial load of thigh muscle tissue) ([1]; group 9: total daily dose 160 mg/kg, single dose 20 mg/kg, q3h s.c.): 2.10E+06 CFU/Mouse | Average CFU of Mouse (bacterial load of thigh muscle tissue) ([1]; group 10: total daily dose 160 mg/kg, single dose 40 mg/kg, q6h s.c.): 4.67E+08 CFU/Mouse | Average CFU of Mouse (bacterial load of thigh muscle tissue) ([1]; group 11: total daily dose 160 mg/kg, single dose 80 mg/kg, q12h s.c.): 7.88E+09 CFU/Mouse | Average CFU of Mouse (bacterial load of thigh muscle tissue) ([1]; group 12: total daily dose 160 mg/kg, single dose 160 mg/kg, q24h s.c.): 1.22E+10 CFU/Mouse | Average CFU of Mouse (bacterial load of thigh muscle tissue) ([1]; group 13: total daily dose 48 mg/kg, single dose 6 mg/kg, q3h s.c.): 4.07E+06 CFU/Mouse | Average CFU of Mouse (bacterial load of thigh muscle tissue) ([1]; group 14: total daily dose 48 mg/kg, single dose 12 mg/kg, q6h s.c.): 1.57E+09 CFU/Mouse | Average CFU of Mouse (bacterial load of thigh muscle tissue) ([1]; group 15: total daily dose 48 mg/kg, single dose 24 mg/kg, q12h s.c.): 8.70E+09 CFU/Mouse | Average CFU of Mouse (bacterial load of thigh muscle tissue) ([1]; group 16: total daily dose 48 mg/kg, single dose 48 mg/kg, q24h s.c.): 1.32E+10 CFU/Mouse | Average CFU of Mouse (bacterial load of thigh muscle tissue) ([1]; group 17: total daily dose 16 mg/kg, single dose 2 mg/kg, q3h s.c.): 7.77E+07 CFU/Mouse | Average CFU of Mouse (bacterial load of thigh muscle tissue) ([1]; group 18: total daily dose 16 mg/kg, single dose 4 mg/kg, q6h s.c.): 2.92E+09 CFU/Mouse | Average CFU of Mouse (bacterial load of thigh muscle tissue) ([1]; group 19: total daily dose 16 mg/kg, single dose 8 mg/kg, q12h s.c.): 6.93E+09 CFU/Mouse | Average CFU of Mouse (bacterial load of thigh muscle tissue) ([1]; group 20: total daily dose 16 mg/kg, single dose 16 mg/kg, q24h s.c.): 1.44E+10 CFU/Mouse | Average CFU of Mouse (bacterial load of thigh muscle tissue) ([1]; group 21: total daily dose 4.8 mg/kg, single dose 0.6 mg/kg, q3h s.c.): 7.22E+08 CFU/Mouse | Average CFU of Mouse (bacterial load of thigh muscle tissue) ([1]; group 22: total daily dose 4.8 mg/kg, single dose 1.2 mg/kg, q6h s.c.): 4.55E+09 CFU/Mouse | Average CFU of Mouse (bacterial load of thigh muscle tissue) ([1]; group 23: total daily dose 4.8 mg/kg, single dose 2.4 mg/kg, q12h s.c.): 7.60E+09 CFU/Mouse | Average CFU of Mouse (bacterial load of thigh muscle tissue) ([1]; group 24: total daily dose 4.8 mg/kg, single dose 4.8 mg/kg, q24h s.c.): 1.27E+10 CFU/Mouse | Antibacterial effect in vivo (conclusion) ([1]; mouse thigh muscle infection, subcutaneous, 26 h after infection): significant antibacterial effect in vivo | Effect of shortening the administration interval (conclusion) ([1]; same daily dose, q3 h, q6 h, q12 h, q24 h): significantly improve the efficacy in vivo | Dose-effect relationship (conclusion) ([1]; total daily dose 4.8 to 1600 mg/kg): significant | Appearance (2 days) ([2]; Acetonitrile): Suspension | Appearance (2 days) ([2]; Acetonitrile-water(20:1)): Suspension | Appearance (2 days) ([2]; Ethanol): Suspension | Appearance (2 days) ([2]; Ethanol-water(20:1)): Suspension | Appearance (2 days) ([2]; Ethyl acetate): Suspension | Appearance (2 days) ([2]; Isopropanol): Suspension | Appearance (2 days) ([2]; Isopropanol-water(20:1)): Suspension | Appearance (2 days) ([2]; Tetrahydrofuran): Suspension | Result (crystal form) ([2]; suspended in Acetonitrile): Crystal form A | Result (crystal form) ([2]; suspended in Acetonitrile-water(20:1)): Crystal form A | Result (crystal form) ([2]; suspended in Ethanol): Crystal form A | Result (crystal form) ([2]; suspended in Ethanol-water(20:1)): Crystal form A | Result (crystal form) ([2]; suspended in Ethyl acetate): Crystal form A | Result (crystal form) ([2]; suspended in Isopropanol): Crystal form A | Result (crystal form) ([2]; suspended in Isopropanol-water(20:1)): Crystal form A | Result (crystal form) ([2]; suspended in Tetrahydrofuran): Crystal form A | Stability in solvents (conclusion) ([2]; variety of solvents): stable | MIC [3]: 0.5 µg/mL (≈ 0.882 µM) | MIC [4]: 0.25 µg/mL (≈ 0.441 µM) | MIC [5]: 0.5 µg/mL (≈ 0.882 µM) | MIC [6]: 1 µg/mL (≈ 1.76 µM) | MIC [7]: 0.25 µg/mL (≈ 0.441 µM) | MIC [8]: 0.125 µg/mL (≈ 0.221 µM)
